Experimental data from paper PMC10191403, “The C-terminal 32-mer fragment of hemoglobin alpha is an amyloidogenic peptide with antimicrobial properties” (Cellular and Molecular Life Sciences: CMLS, 2023).
Ends that are not written are not given here.

Key:
[1] = system: THP-1-derived macrophages; test: Phagocytosis of E. coli-GFP by THP-1-derived macrophages; format: cell-based, human; conditions: E. coli-GFP pre-incubated with 1 mg/ml fibrils, 3 h on cells; CytD 2 µg/ml pre-treatment 30 min; confocal microscopy
HSV-2 = format: cell-based; conditions: serial dilutions of peptides added to ELVIS cells, infected 1 h later with HSV-2; lacZ enzyme activity one day post-infection; ±SD; one (inactive) to three (active) experiments in triplicates
[2] = Thioflavin T (ThT) assay of fibril formation; format: physicochemical; conditions: formation of ThT positive aggregates

Molecule	uptake of E. coli-GFP by macrophages [1]	IC50 (antiviral activity, HSV-2) (HSV-2) [µg/mL]	ThT signal (+/-) [2]
C=C1[C@@H](C)[C@H]2[C@H](Cc3ccccc3)NC(=O)[C@]23[C@H](OC(C)=O)/C=C/[C@@](C)(O)C(=O)[C@@H](C)C/C=C/[C@H]3[C@@H]1O [CytD, Cytochalasin D]	prevented the uptake of any bacteria		
ASVSTVL [HBA 131-137]		> 130	+
AAHLPAEFTPAVHASLDKFLA [HBA(111–131)]		> 130	-
SVSTVL [HBA 132-137]		> 130	-
LASVSTVL [HBA 130-137]		> 130	+
KFLASVST [HBA 128-135]		> 130	-
SVSTVLTSKYR [HBA 132-142]		> 130	-
